Data published in patent US8673913B2, “SHP-2 phosphatase inhibitor” (Case Western Reserve University, priority 2009, dated 2014).

Key:
[1] = tested on: Erk activation in Ba/F3 cells; assay: IL-3-induced Erk activation, anti-phospho-Erk immunoblotting; format: cell-based, murine; details: Ba/F3 cells preincubated 1 hour
Method: (§1) FIG. 5 illustrates in vivo effects of active compounds on SHP-2 activity and SHP-2-mediated signaling. (A) WT and mutant embryonic fibroblasts derived from activating mutation SHP-2 D61G knock-in mice were starved in serum-free medium overnight and were treated with the indicated compounds in the last 1 hour. Cells were then stimulated with EGF (20 ng/mL) for 10 min. Whole cell lysates were prepared and immunoprecipitated with anti-SHP-2 antibody. Immunoprecipitates were washed and then subjected to the in vitro phosphatase assay as described in the text. (B) Ba/F3 cells were deprived of IL-3 for 8 hours. The cells were treated with the indicated compounds 1 hour prior to the stimulation with IL-3 (2 ng/mL). Cells were harvested after the indicated periods of time. Whole cell lysates were prepared and examined for Erk activation with anti-phospho-Erk immunoblotting. The blot was striped and reprobed with anti-pan Erk antibody to examine protein loading.
We next tested whether the active compounds are effective in cells. […] Activation of SHP-2 in response to EGF stimulation was determined using the immunocomplex phosphatase assay. Compared to WT SHP-2, catalytic activity of SHP-2 D61G mutant in the mutant cells was increased both at the basal level and following EGF stimulation (FIG. 5A), consistent with previous studies. […]

[2] = biological target: T1, SHP-2 PTP domain GST fusion protein (Homo sapiens, UniProt Q06124); assay: fluorescence titration (quenching of SHP-2 fluorescence); format: binding; parameters: Purified SHP-2 PTP domain GST-fusion protein was diluted into 20 mM Tris-HCl; made in house; details: SHP-2 protein 3 μM, excitation 295 nm
T1 sequence (Q06124 247-517 limits assumed): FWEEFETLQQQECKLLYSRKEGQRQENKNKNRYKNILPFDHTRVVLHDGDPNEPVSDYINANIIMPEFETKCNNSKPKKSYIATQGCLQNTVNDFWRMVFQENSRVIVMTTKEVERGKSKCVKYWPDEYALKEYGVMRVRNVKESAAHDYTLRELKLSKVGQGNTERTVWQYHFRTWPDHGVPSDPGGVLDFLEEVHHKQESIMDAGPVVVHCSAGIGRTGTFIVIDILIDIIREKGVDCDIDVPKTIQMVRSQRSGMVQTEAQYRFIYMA
Method: For all experiments, Purified SHP-2 PTP domain GST-fusion protein was diluted into 20 mM Tris-HCl, pH 7.5. Fluorescence spectra were recorded with a Luminescence Spectrometer LS50 (Perkin-Elmer, Boston, Mass.). Titrations were performed by increasing the test compound concentration while maintaining the SHP-2 protein concentration at 3 μM. Contributions from background fluorescence of the inhibitors were accounted for by subtracting the fluorescence of the inhibitors alone from the of the protein-inhibitor solution. The excitation wavelength was 295 nm and fluorescence was monitored from 360 to 500 nm. All reported fluorescence intensities are relative values and are not corrected for wavelength variations in detector response.
To validate that the active compounds identified were binding directly to the SHP-2 protein, we determined whether the active compounds directly interacted with the SHP-2 PTP domain using fluorescence quenching and taking advantage of the four tryptophans in the PTP domain, with Trp248 located 15 Å from the putative pY+5 pocket and Trp423 located 8 Å from the phosphatase active site. […] Therefore, their binding to SHP-2 protein could not be determined using this measurement. Thus, the fluorescence quenching experiments indicate that at least four active compounds identified do directly bind to SHP-2, thereby leading to their biological activities.

[3] = tested on: SHP-2 (WT and D61G) in mouse embryonic fibroblasts; assay: in vivo (immunocomplex) phosphatase assay: EGF-induced activation of SHP-2 in embryonic fibroblasts; format: cell-based; details: 100 μM, last 1 hour; WT and SHP-2D61G/D61G cells
Method: as §1
For the in vivo phosphatase assay, mouse embryonic fibroblasts were used to assess the activities of the test compounds in inhibiting epidermal growth factor (EGF)-induced activation of SHP-2 catalytic activity. WT and mutant fibroblasts derived from activating mutation of SHP-2 D61G knock-in mice (SHP-2D61G/D61G)10 were starved in serum-free medium overnight and the tested compounds (100 μM) were added in the last 1 hour. […]

[4] = tested on: mouse embryonic fibroblasts, wildtype and SHP-2 E76K mutant; assay: cell proliferation assay, embryonic fibroblasts wildtype and SHP-2 E76K (MTS); format: cell-based; details: 48 hours
Method: To test the effects of the active compounds on SHP-2-mediated cellular proliferation, Ba/F3, an IL-3 dependent hematopoietic cell line, mouse embryonic fibroblasts (MEFs), and H661 lung cancer cell line with SHP-2 activating mutation N58S were used for the assays. Cells were seeded into 96-well plates (2×10^4 cells/well) in the RPMI-1640 (for Ba/F3 cells) or DMEM (for MEFs and H661 cells) medium supplemented with 10% fetal bovine serum (FBS) and test compounds at various concentrations. For the Ba/F3 cell assay, recombinant mouse IL-3 (1 ng/mL) was included in the culture medium. Two days later, cell number was determined using the MTS cell proliferation kit (Promega Life Science, Madison, Wis.).
Mouse embryonic fibroblasts, wildtype and SHP-2 E76K mutant, were cultured in DMEM medium supplemented with active compounds at the indicated concentrations. DMSO was included at negative controls. Cell numbers were determined 48 hours later using the MTS assay. Shown are the results of a representative compound #324.

NS(=O)(=O)c1ccc(CCNC(=O)c2ccc(Cn3c(=S)[nH]c4ccc(Br)cc4c3=O)cc2)cc1 [#216]
Erk activation by IL-3 [1]: suppressed
quenching of SHP-2 fluorescence [2]: strong quenching
EGF-induced activation of SHP-2 [3]: blocked

Cc1cc(C)c2c(c1)[nH]c1nnc(SCC(=O)NCc3cccs3)nc12 [#220]
Erk activation by IL-3 [1]: suppressed
quenching of SHP-2 fluorescence [2]: strong quenching
EGF-induced activation of SHP-2 [3]: blocked

Cc1cc(C)c2[nH]c3nc(SCC(=O)Nc4cccc5ccccc45)nnc3c2c1 [#324]
sensitivity of E76K fibroblasts versus wild type fibroblasts [4]: more sensitive
